# Test results reported in patent publication US20210128414A1, “SELF-ASSEMBLED NANOSTRUCTURES AND COMPOSITE MATERIALS USABLE IN DENTAL APPLICATIONS CONTAINING SAME” (Ramot at Tel-Aviv University Ltd., priority 2018, published 2021).
# Tests used:
# S. mutans [1] = experiment: Minimum inhibitory concentration and kinetic growth inhibition analysis of nanostructures; assay type: cell-based, Streptococcus mutans
# Procedure: The antibacterial capabilities of the obtained nanostructures were evaluated against S. mutans via a minimum inhibitory concentration (MIC) analysis and by kinetic growth inhibition analysis, as follows. S. mutans bacteria were grown under anaerobic conditions in brain heart infusion (BHI) medium (BD Difco) for 48 hours and then diluted to OD600 of 0.01 or 0.25 in BHI. Nanostructures samples, at an initial concentration of 8 mM, were added to the bacterial samples in 96-well plates in serial 2-fold dilutions, which were sealed to ensure anaerobic conditions. Kinetic growth inhibition was determined by optical density measurements (650 nm) using a Biotek Synergy HT microplate reader. The minimum inhibitory concentration (MIC) was determined using the microdilution assay, and evaluation of the reduction in colony-forming units was obtained by plating and counting bacterial samples before and after overnight treatment. […] The ability of the nanostructures to inhibit bacterial growth at a higher bacterial load, similar to that of an active infection was also tested. S. mutans cultures were grown until mid-log phase and were then treated with 2 mM samples of the nanostructures.
# S. mutans [2] = experiment: Live/Dead (Syto9/Propidium iodide) bacterial viability analysis of nanostructure-treated bacteria; assay type: cell-based, Streptococcus mutans; details: after kinetic analysis with nanostructures
# Procedure: To directly assess bacterial viability, the bacteria were subjected to Live/Dead viability analysis containing Syto9 (indicating live bacteria) and Propidium iodide (PI) (indicating dead bacteria). Following kinetic analysis, the samples were washed thrice with saline, incubated for 15 minutes in a solution containing Syto9 and Propidium iodide (L13152 LIVE/DEAD BacLight Bacterial Viability Kit, Molecular Probes, OR), and washed with saline again. Fluorescence emission was detected using an ECLIPSE E600 fluorescent microscope (Nikon, Japan).
# S. mutans [3] = experiment: Bacterial morphology by high-resolution scanning electron microscopy; assay type: cell-based, Streptococcus mutans; details: overnight treatment with nanostructures
# Procedure: The effect of Fmoc-F5-Phe nanostructures on bacterial morphology was studied using High-Resolution Scanning Electron Microscopy as follows.
# Bacterial samples were centrifuged at 5000 rpm for 5 minutes, washed thrice in PBS, and fixed in 2.5% glutaraldehyde in PBS for 1 hour. The samples were then washed thrice in PBS and fixed in 1% OsO4 in PBS for 1 hour, followed by a dehydration series with ethanol. The samples were then left in absolute ethanol for 30 minutes and placed onto glass coverslips, followed by critical point drying and coating with gold. Micrographs were recorded using a JEOL JSM-6700F FE-SEM scanning electron microscope operating at 10 kV. The obtained micrographs shown in FIG. 1I are representative of three independent experiments.
# S. mutans [4] = experiment: SYTOX Blue membrane permeation assay; assay type: cell-based, Streptococcus mutans; details: nanostructures, 3 hours incubation at 37° C.
# Procedure: The effect of Fmoc-F5-Phe nanostructures on bacterial membrane permeation was also supported by a SYTOX Blue membrane permeation assay. SYTOX Blue is a cationic dye that cannot enter an intact cell unless its membrane is disrupted by external compounds. Inside the cell, SYTOX Blue stain binds to intracellular nucleic acids and fluoresces bright blue when excited with 405 nm violet laser light.
# S. mutans bacteria were grown under anaerobic conditions in BHI medium (BD Difco) for 48 hours and diluted to 0.1 OD600. Fmoc-F5-Phe or ultrapure water (100 μL) as control was added to 300 μL of bacteria and incubated for 3 hours in 37° C. The bacterial cells were centrifuged for 5 minutes at 3700 rpm and incubated with 1 μM SYTOX blue (Thermo Fisher Scientific) for 30 minutes at 37° C. The samples were washed three times in PBS and examined by confocal microscopy LSM 510, excited at 405 nm (Zeiss, Germany).
# [5] = Shear-Punch Strength Test of nanostructure-incorporated resin composite restorative; assay type: physicochemical
# Procedure: The effect of the incorporation of peptide nanostructures in the polymerized dental resin composite restorative on the structural integrity of the resin composite restorative was tested. A Shear-Punch Test was carried out on samples incorporating varying weight ratios of Fmoc-Pentafluoro-Phe.
# A Shear-Punch Strength Test was performed according to Mount et al., Aust. Dent. 1996; J 41: 116-23. Shear Punch Strength Test. Briefly, a composition comprising the nanostructures dispersed in a pre-polymerized resin composite restorative was placed in 0.8 mm thick wash holders and light-cured to form flat parallel surfaces evenly supported and restrained by the holder. The samples were then placed in an Instron device (model 4502) for punching under a crosshead speed of 0.5 mm per minute. The maximum force applied (Fmax) was calculated as the mean of 10 different samples for each w/w % concentration of the tested nanostructure. Statistical analysis was carried out via one-way analysis of variance and Dunnett's post hoc test.
# [6] = Diametral Tensile Strength (DTS) test; assay type: physicochemical; details: 2% w/w nanostructures in Filtek composite; p>0.155
# Procedure: Diametral Tensile Strength (DTS) Test was further performed to verify the difference in tensile properties (tensile strength and stiffness of the specimens characterizing the elasticity of the materials) of the 2% amalgamated material compared to the control (0%), as follows.
# Disks (6 mm in diameter, 3 mm in height) of either control resin composite restorative or 2% nanoassembly-incorporated resin composite restorative were prepared in a Teflon mold similar to the specimens used for the punch shear strength. Specimens were loaded up to failure. The linear slope during loading was calculated, indicating the stiffness of the specimen, and the DTS was calculated by: […]
# where P is the load at failure (N), D is the specimen diameter (mm), and t is the specimen height (mm).
# The specimens were loaded via the above-mentioned loading machine using the same crosshead speed. Statistical analysis was carried out via T-test.
# [7] = HPLC-based nanostructures release evaluation in sterile saliva; assay type: physicochemical; details: 37° C., 2% w/w composite
# Procedure: Restorative composites incorporating 4 mg of the Fmoc-F5-Phe nanostructures to a final w/w % of 2% were examined following 24, 48 and 72 hours of incubation at 37° C. in sterile saliva.
# [8] = Occlusal fissure stability and optical property analyses; assay type: physicochemical; details: 2% w/w composite
# Procedure: Occlusal Fissure Stability and Optical Property Analyses were also performed as follows.
# Occlusal fissures were made via a diamond bur and then restored utilizing either the 2% nanostructure-containing restorative composites or a control (0%) restorative. The samples were contained for 30 days at 37° C. in sterile PBS. A Spectroshade Micro-MHT dental spectrophotometer normalized to the Vita classical color guide was then utilized to evaluate the color of the tested samples.
# S. mutans [9] = experiment: Direct-contact kinetic analysis (direct-contact test) of polymerized composite materials; assay type: cell-based, Streptococcus mutans; details: 1 hour direct contact
# Procedure: In order to evaluate the antimicrobial capabilities of the resin composite restoratives while simulating its clinical use, a direct-contact test (DCT) was carried out. This spectroscopic microplate reader based test, designed for compounds that are non-diffusible and non-soluble in water, allows measuring the effect of direct contact between the evaluated material and bacterial viability and growth. Four different W/W % samples of the resin composite material were evaluated at 0.25, 0.5, 1 and 2% Fmoc-F5-Phe nano-structure concentrations, and Filtek™ Ultimate Flow with no Fmoc-F5-Phe nano-structures additives, treated in the same manner, served as a control. Streptococcus mutans (S. mutans) was chosen for this evaluation as this strain is commonly found in the human oral cavity and is a significant caries-causing pathogen. Following direct contact of S. mutans bacteria with the Fmoc-F5-Phe incorporated materials the subsequent proliferation of the bacteria, was evaluated by optical density measurements over eighteen hours.
# This analysis was carried out as described in Weiss et al. Endod. Dent. Traumatol. 12, 179-84 (1996), with slight modification.
# S. mutans bacteria were grown in anaerobic conditions in BHI media for 48 hours and then diluted to an OD600 of 0.6 in BHI. […] were deposited onto inserts (concaved plastic surfaces designed to be suspended in the wells of 96 well-plates) coated on one side with each of the nano-assembly incorporated resin composite restoratives (four different W/W % samples of the resin composite material were evaluated at 0.25, 0.5, 1 and 2% concentrations of each nanostructure) and then incubated for one hour at 37° C. Following incubation […] was added to each well so that the inserts were submerged in the BHI and the plates were sealed to ensure anaerobic conditions. Kinetic growth inhibition was determined by optical density measurements (650 nm) using a Biotek Synergy HT microplate reader.
# S. mutans [10] = experiment: Live/Dead viability analysis after contact with composite restoratives; assay type: cell-based, Streptococcus mutans
# Procedure: To directly assess bacterial viability, treated and control bacteria were subjected to Live/Dead viability analysis, using the Live/Dead backlight bacterial viability kit and accompanying instructions, as follows. S. mutans bacteria were grown in anaerobic conditions in BHI media for 48 hours and then diluted to an OD600 of 0.6 in BHI. 100 μl of these samples were deposited onto inserts coated on one side with each of the polymeric matrices and then incubated for one hour at 37 degrees. Following incubation […] was added to each well and the plates were sealed to ensure anaerobic conditions. At each time point (initial incubation, 1 hour and 24 hours) samples were taken and washed with saline, incubated for 15 minutes in a solution containing Propidium iodide and Syto9 (L13152 LIVE/DEAD® BacLight™ Bacterial Viability Kit, Molecular Probes, OR, USA) and washed with saline again. Fluorescence emission was detected using an ECLIPSE E600 (Nikon, Japan).
# 3T3 fibroblasts = experiment: MTT cell viability analysis of composite restoratives; assay type: cell-based; details: nanostructure-incorporated composite versus composite alone; 18 hours, 37° C.
# Procedure: (§1) The effect of the incorporation of Fmoc-F5-Phe on the cytotoxicity of the dental composite restoratives was tested. This was carried out by evaluating the effect of each amalgamated composite restorative (containing self-assembled nanostructures as described herein) on the viability of two cell lines; HeLa and 3T3 fibroblasts, using MTT analysis, as follows.
# (§2) The 3T3 fibroblast cells and HeLa cells grown in Dulbecco's Modified Eagle's Medium (DMEM) supplemented with 10% fetal calf serum (FBS) (Biological Industries, Israel) were sub-cultured (2×10^5 cells/mL) in 96-well tissue microplates (100 μl per well) and were allowed to adhere overnight at 37° C. Inserts (in quadruplet) coated on one side with each of the nano-assembly incorporated resin composite restoratives were placed into the wells containing the adhered cells. After incubation for 18 hours at 37° C., cell viability was evaluated using the 3-(4,5-dimethylthiazolyl-2)-2,5-diphenyltetrazolium bromide (MTT) assay. Briefly, 10 μL of 5 mg/mL MTT dissolved in PBS was added to each well. After 4 hours incubation at 37° C., 100 μl of the extraction buffer [20% SDS dissolved in a solution of 50% dimethylformamide and 50% DDW (pH 4.7)] were added to each well, and the plates were incubated again at 37° C. for 30 minutes. Finally, color intensity was measured using an ELISA reader at 570 nm. […]
# HeLa cells = experiment: as above; assay type: cell-based; details: nanostructure-incorporated composite versus composite alone; 18 hours, 37° C.
# Procedure: as §1, §2
# [11] = 0.25-1% w/w nanostructures in Filtek composite
# [12] = 2% w/w nanostructures in Filtek composite
smiles,measurement,setting,value
"O=C(NC(Cc1c(F)c(F)c(F)c(F)c1F)C(=O)O)OCC1c2ccccc2-c2ccccc21 (stereo not drawn) [Fmoc-F5-Phe, Fmoc-Pentafluorophenylalanline]",bacterial growth inhibition at higher bacterial load,S. mutans [1]; 2 mM nanostructures added to mid-log phase cultures,inhibited bacterial proliferation
same,reduction in colony-forming units,"S. mutans [1]; nanostructures at 2 mM, overnight, early log phase cultures",7.2 log(10) CFU/mL
same,bacterial growth inhibition at lower concentrations,"S. mutans [1]; nanostructures below 2 mM, overnight",partially inhibiting growth in a dose-dependent manner
same,concentration at which overnight incubation completely inhibited bacterial growth (MIC analysis),"S. mutans [1]; self-assembled nanostructures, cultures started at early log phase, overnight",2000 µM
same,bacterial viability (Live/Dead),S. mutans [2],significant bacterial cell death
same,effect on bacterial morphology,S. mutans [3],"membrane fusing, clumping, and disintegration were abundant"
same,bacteria stained with SYTOX Blue (membrane permeation),S. mutans [4],about 90%
same,Fmax versus control (0%),"[5]; 0.25%, 0.5% and 1% w/w nanostructures in Filtek composite, p≥0.144",no statistically significant difference
same,"Fmax, inferior to control (0%) by","[5]; 2% w/w nanostructures in Filtek composite, p=0.011",9%
same,effect on stiffness of the specimen,"[5]; nanostructures in Filtek composite, data not shown",no substantial effect
same,diametral tensile strength and stiffness versus control (0%),[6],No statistically significant differences
same,amount of nanostructures released,"[7]; 24 hours, 4 mg nanostructures",0.9520 micrograms
same,released fraction of initial amount of incorporated nanostructures,[7]; 24 hours,less than 0.024%
same,amount of nanostructures released,[7]; 48 hours,0.1805 micrograms
same,released fraction of incorporated nanostructures,[7]; 48 hours,below 0.0046%
same,amount of nanostructures released,[7]; 72 hours,0.1088 micrograms
same,stability of occlusal fissure restorations,[8]; 30-day incubation at 37° C. in sterile PBS,remained intact and stable
same,color (Vita shade) versus control,[8]; Spectroshade Micro-MHT spectrophotometer,same Vita shade
same,bacterial growth inhibition,S. mutans [9]; [11],partially inhibit bacterial growth in a dose dependent manner
same,bacterial growth inhibition,S. mutans [9]; [12],over 95%
same,bacterial viability (Live/Dead),S. mutans [10]; [12],bacterial cell death
same,"bacterial viability (Live/Dead), persistence of effect","S. mutans [10]; composite with nanostructures, 24 hours",persisted
same,bacterial viability (Live/Dead),"S. mutans [10]; composite with nanostructures, one hour of treatment, versus Filtek alone",large scale bacterial death
same,effect of incorporation on cell viability (MTT),3T3 fibroblasts,did not change the effect
same,effect of incorporation on cell viability (MTT),HeLa cells,did not change the effect
"O=C(N[C@@H](Cc1ccccc1)C(=O)O)OCC1c2ccccc2-c2ccccc21 [Fmoc-Phe, Fmoc-phenylalanine]",bacterial growth inhibition,S. mutans [9]; [11],inhibited growth in a dose-dependent manner
same,bacterial growth inhibition,S. mutans [9]; [12],60%
